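1) Cells in 96-well plates. 2) Compound, 48 h, 5 concentrations. 3) Linear interpolation between surrounding doses. 4) Unreached endpoint = highest concentration. GI50 marks 50% less growth.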 Active and inactive are the calls of the source. No stated cut-off is given here; in the data, active = GI50 up to about 1.1 µM and inactive = higher.
Experiments:
Experiment in all cases: NCI-60 cell line screen, 48 h
786-0 = system: 786-0
A498 = system: A498
ACHN = system: ACHN
CAKI-1 = system: CAKI-1
COLO 205 = system: COLO 205
DMS-114 = system: DMS-114
DMS-273 = system: DMS-273
EKVX = system: EKVX
HCC 2998 = system: HCC 2998
HCT-116 = system: HCT-116
HCT-15 = system: HCT-15
HOP-18 = system: HOP-18
HOP-62 = system: HOP-62
HOP-92 = system: HOP-92
HT-29 = system: HT-29
IGROV-1 = system: IGROV-1
K562 = system: K562
KM-20L2 = system: KM-20L2
KM12 = system: KM12
LOX IMVI = system: LOX IMVI
LXFL 529 = system: LXFL 529
M14 = system: M14
M19-MEL = system: M19-MEL
MOLT-4 = system: MOLT-4
Malme-3M = system: Malme-3M
NCI-H226 = system: NCI-H226
NCI-H23 = system: NCI-H23
NCI-H460 = system: NCI-H460
NCI-H522 = system: NCI-H522
OVCAR-3 = system: OVCAR-3
OVCAR-4 = system: OVCAR-4
OVCAR-5 = system: OVCAR-5
OVCAR-8 = system: OVCAR-8
RPMI-8226 = system: RPMI-8226
RXF 393 = system: RXF 393
RXF 631 = system: RXF 631
SF-268 = system: SF-268
SF-295 = system: SF-295
SF-539 = system: SF-539
SK-MEL-28 = system: SK-MEL-28
SK-MEL-2 = system: SK-MEL-2
SK-MEL-5 = system: SK-MEL-5
SK-OV-3 = system: SK-OV-3
SN12C = system: SN12C
SNB-19 = system: SNB-19
SNB-75 = system: SNB-75
SNB-78 = system: SNB-78
SW-620 = system: SW-620
TK-10 = system: TK-10
U-251 = system: U-251
UACC-257 = system: UACC-257
UACC-62 = system: UACC-62
UO-31 = system: UO-31
XF498 = system: XF498
A549 = system: A549
CCRF-CEM = system: CCRF-CEM
DLD-1 = system: DLD-1
HL-60 = system: HL-60
SR = system: SR

What does the source list for `N#CC1C(=O)NC(=O)C1=O` (stereo unspecified)?
GI50 (786-0): > 100 µM (inactive); GI50 (A498): > 100 µM (inactive); GI50 (ACHN): > 100 µM (inactive); GI50 (CAKI-1): > 100 µM (inactive); GI50 (COLO 205): > 100 µM (inactive); GI50 (DMS-114): > 100 µM (inactive); GI50 (DMS-273): > 100 µM (inactive); GI50 (EKVX): > 100 µM (inactive); GI50 (HCC 2998): > 100 µM (inactive); GI50 (HCT-116): > 100 µM (inactive); GI50 (HCT-15): > 100 µM; GI50 (HOP-18): > 100 µM (inactive); GI50 (HOP-62): > 100 µM (inactive); GI50 (HOP-92): > 100 µM (inactive); GI50 (HT-29): > 100 µM (inactive); GI50 (IGROV-1): > 100 µM (inactive); GI50 (K562): > 100 µM (inactive); GI50 (KM-20L2): > 100 µM (inactive); GI50 (KM12): > 100 µM (inactive); GI50 (LOX IMVI): > 100 µM (inactive); GI50 (LXFL 529): > 100 µM (inactive); GI50 (M14): > 100 µM (inactive); GI50 (M19-MEL): > 100 µM (inactive); GI50 (MOLT-4): > 100 µM (inactive); GI50 (Malme-3M): > 100 µM (inactive); GI50 (NCI-H226): > 100 µM (inactive); GI50 (NCI-H23): > 100 µM (inactive); GI50 (NCI-H460): > 100 µM (inactive); GI50 (NCI-H522): > 100 µM (inactive); GI50 (OVCAR-3): > 100 µM (inactive); GI50 (OVCAR-4): > 100 µM (inactive); GI50 (OVCAR-5): > 100 µM (inactive); GI50 (OVCAR-8): > 100 µM (inactive); GI50 (RPMI-8226): > 100 µM (inactive); GI50 (RXF 393): > 100 µM (inactive); GI50 (RXF 631): > 100 µM (inactive); GI50 (SF-268): > 100 µM (inactive); GI50 (SF-295): > 100 µM (inactive); GI50 (SF-539): > 100 µM (inactive); GI50 (SK-MEL-28): > 100 µM (inactive); GI50 (SK-MEL-2): > 100 µM (inactive); GI50 (SK-MEL-5): > 100 µM (inactive); GI50 (SK-OV-3): > 100 µM (inactive); GI50 (SN12C): > 100 µM (inactive); GI50 (SNB-19): > 100 µM (inactive); GI50 (SNB-75): > 100 µM (inactive); GI50 (SNB-78): > 100 µM (inactive); GI50 (SW-620): > 100 µM (inactive); GI50 (TK-10): > 100 µM (inactive); GI50 (U-251): > 100 µM (inactive); GI50 (UACC-257): > 100 µM (inactive); GI50 (UACC-62): > 100 µM (inactive); GI50 (UO-31): > 100 µM (inactive); GI50 (XF498): > 100 µM (inactive)

How did the GI50 (786-0) turn out when `O=C1c2ccccc2C(=O)N1C/C=N/NS(=O)(=O)c1ccc(Br)cc1` was run?
Its GI50 is > 100 µM (inactive).

What about the GI50 (A498) of the same molecule?
The GI50 was > 100 µM (inactive).

And the GI50 (A549)?
Its GI50 is > 100 µM (inactive).

And the GI50 (ACHN)?
Its GI50 is > 100 µM (inactive).

What about the GI50 (CAKI-1) of the same molecule?
The GI50 was 74.1 µM (inactive).

And the GI50 (CCRF-CEM)?
Its GI50 is > 100 µM (inactive).

And the GI50 (COLO 205)?
The GI50 was > 100 µM (inactive).

And the GI50 (DLD-1)?
Its GI50 is > 100 µM (inactive).

What about the GI50 (DMS-114) of the same molecule?
Its GI50 is 51.6 µM (inactive).

What about the GI50 (DMS-273) of the same molecule?
Its GI50 is > 100 µM (inactive).

What about the GI50 (EKVX) of the same molecule?
The GI50 was > 100 µM (inactive).

And the GI50 (HCC 2998)?
The GI50 was > 100 µM (inactive).

What about the GI50 (HCT-116) of the same molecule?
Its GI50 is > 100 µM (inactive).

What about the GI50 (HCT-15) of the same molecule?
Its GI50 is > 100 µM.

And the GI50 (HL-60)?
Its GI50 is > 100 µM (inactive).

What about the GI50 (HOP-18) of the same molecule?
The GI50 was > 100 µM (inactive).

What about the GI50 (HOP-62) of the same molecule?
The GI50 was > 100 µM (inactive).

And the GI50 (HOP-92)?
Its GI50 is 11 µM (inactive).

What about the GI50 (HT-29) of the same molecule?
The GI50 was > 100 µM (inactive).

What about the GI50 (IGROV-1) of the same molecule?
Its GI50 is > 100 µM (inactive).

What about the GI50 (K562) of the same molecule?
Its GI50 is > 100 µM (inactive).

What about the GI50 (KM-20L2) of the same molecule?
The GI50 was > 100 µM (inactive).

What about the GI50 (KM12) of the same molecule?
Its GI50 is > 100 µM (inactive).

And the GI50 (LXFL 529)?
The GI50 was > 100 µM (inactive).

What about the GI50 (M14) of the same molecule?
Its GI50 is > 100 µM (inactive).

What about the GI50 (M19-MEL) of the same molecule?
The GI50 was > 100 µM (inactive).

What about the GI50 (MOLT-4) of the same molecule?
Its GI50 is > 100 µM (inactive).

What about the GI50 (Malme-3M) of the same molecule?
Its GI50 is > 100 µM (inactive).

What about the GI50 (NCI-H226) of the same molecule?
The GI50 was > 100 µM (inactive).

And the GI50 (NCI-H23)?
The GI50 was > 100 µM (inactive).

And the GI50 (NCI-H460)?
The GI50 was > 100 µM (inactive).

What about the GI50 (NCI-H522) of the same molecule?
Its GI50 is > 100 µM (inactive).

And the GI50 (OVCAR-3)?
The GI50 was > 100 µM (inactive).

And the GI50 (OVCAR-4)?
The GI50 was > 100 µM (inactive).

What about the GI50 (OVCAR-5) of the same molecule?
Its GI50 is > 100 µM (inactive).

What about the GI50 (OVCAR-8) of the same molecule?
The GI50 was > 100 µM (inactive).

What about the GI50 (RPMI-8226) of the same molecule?
The GI50 was > 100 µM (inactive).

And the GI50 (RXF 631)?
Its GI50 is > 100 µM (inactive).

What about the GI50 (SF-268) of the same molecule?
Its GI50 is > 100 µM (inactive).

And the GI50 (SF-295)?
The GI50 was > 100 µM (inactive).

And the GI50 (SF-539)?
Its GI50 is > 100 µM (inactive).

And the GI50 (SK-MEL-28)?
The GI50 was 80 µM (inactive).

What about the GI50 (SK-MEL-2) of the same molecule?
The GI50 was > 100 µM (inactive).

And the GI50 (SK-MEL-5)?
The GI50 was > 100 µM (inactive).

And the GI50 (SK-OV-3)?
Its GI50 is > 100 µM (inactive).

And the GI50 (SN12C)?
The GI50 was > 100 µM (inactive).

What about the GI50 (SNB-19) of the same molecule?
Its GI50 is > 100 µM (inactive).

And the GI50 (SNB-75)?
The GI50 was > 100 µM (inactive).

What about the GI50 (SNB-78) of the same molecule?
The GI50 was > 100 µM (inactive).

What about the GI50 (SR) of the same molecule?
The GI50 was > 100 µM (inactive).

And the GI50 (SW-620)?
Its GI50 is > 100 µM (inactive).

What about the GI50 (TK-10) of the same molecule?
Its GI50 is > 100 µM (inactive).

And the GI50 (U-251)?
Its GI50 is > 100 µM (inactive).

What about the GI50 (UACC-257) of the same molecule?
The GI50 was > 100 µM (inactive).

What about the GI50 (UACC-62) of the same molecule?
Its GI50 is > 100 µM (inactive).

And the GI50 (UO-31)?
Its GI50 is > 100 µM (inactive).

And the GI50 (XF498)?
The GI50 was > 100 µM (inactive).
